Common to all, as to type: biochemical
Experiment [1] concerns the target T1, Lck (Homo sapiens, UniProt P06239).
T1 construct: Kinases are expressed as either kinase domains or full length constructs; made in house
Nature of the experiment: Kinase inhibition assay (33P transfer), Lck. The conditions noted are these: read-out: Lck-1. In short, it runs like this: (§1)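 Recombinant kinase-domain or full-length fusion proteins (GST or His tag) served as enzyme. Substrate poly(Glu,Tyr) 4:1 or poly(Arg,Ser) 3:1 was bound to the plate; transferred 33P was read by liquid scintillation following acid washing.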

The target of experiment [2] is T2, Zap-70 (Homo sapiens, UniProt P43403).
T2 construct: Kinases are expressed as either kinase domains or full length constructs; made in house
T2 sequence (P43403 1-619): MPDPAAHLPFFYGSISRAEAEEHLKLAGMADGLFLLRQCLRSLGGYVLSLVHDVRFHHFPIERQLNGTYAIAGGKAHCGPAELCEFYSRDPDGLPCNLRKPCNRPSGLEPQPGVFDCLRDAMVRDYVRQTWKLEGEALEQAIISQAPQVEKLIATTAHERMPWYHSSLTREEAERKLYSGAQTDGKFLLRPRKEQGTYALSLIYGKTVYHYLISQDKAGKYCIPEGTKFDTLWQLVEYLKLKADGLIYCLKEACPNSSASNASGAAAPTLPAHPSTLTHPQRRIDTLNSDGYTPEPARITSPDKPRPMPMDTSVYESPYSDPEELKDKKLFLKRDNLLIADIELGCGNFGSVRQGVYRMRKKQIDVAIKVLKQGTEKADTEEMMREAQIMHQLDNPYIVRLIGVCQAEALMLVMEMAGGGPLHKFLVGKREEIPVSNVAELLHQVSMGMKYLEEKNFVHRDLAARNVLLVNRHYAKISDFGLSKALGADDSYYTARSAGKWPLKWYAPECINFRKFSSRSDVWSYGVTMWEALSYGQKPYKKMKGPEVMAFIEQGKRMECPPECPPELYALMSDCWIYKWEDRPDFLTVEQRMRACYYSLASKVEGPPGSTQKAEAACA
Kind of experiment: Kinase inhibition assay (33P transfer), Zap-70. The conditions noted are these: read-out: Zap-1. The method in brief:
as §1

The target of experiment [3] is T3, Itk (Homo sapiens, UniProt Q08881).
T3 construct: Kinases are expressed as either kinase domains or full length constructs; made in house
T3 sequence (Q08881 1-620): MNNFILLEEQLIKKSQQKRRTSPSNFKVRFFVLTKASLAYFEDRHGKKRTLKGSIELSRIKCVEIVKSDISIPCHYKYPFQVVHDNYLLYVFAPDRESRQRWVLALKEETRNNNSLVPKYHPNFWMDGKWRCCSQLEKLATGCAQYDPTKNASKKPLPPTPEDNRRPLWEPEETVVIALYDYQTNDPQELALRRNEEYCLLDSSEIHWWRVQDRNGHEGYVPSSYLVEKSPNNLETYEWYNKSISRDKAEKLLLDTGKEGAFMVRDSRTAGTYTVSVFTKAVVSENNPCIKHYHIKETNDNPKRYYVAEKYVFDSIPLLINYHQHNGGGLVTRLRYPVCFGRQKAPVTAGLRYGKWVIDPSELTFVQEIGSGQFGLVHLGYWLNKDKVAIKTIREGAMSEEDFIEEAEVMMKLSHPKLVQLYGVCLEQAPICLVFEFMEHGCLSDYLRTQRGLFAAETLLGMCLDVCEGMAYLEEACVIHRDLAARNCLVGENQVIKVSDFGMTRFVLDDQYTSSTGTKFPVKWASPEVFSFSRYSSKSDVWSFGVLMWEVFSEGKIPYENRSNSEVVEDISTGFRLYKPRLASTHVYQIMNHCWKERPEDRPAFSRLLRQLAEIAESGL
Nature of the experiment: Kinase inhibition assay (33P transfer), Itk. The conditions noted are these: read-out: Itk-1. In short, it runs like this:
(§2)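 GST/His-fusion kinases, E. coli or High Five expressed, affinity purified; 33P-ATP, plate-coated poly(Glu,Tyr) 4:1 or poly(Arg,Ser) 3:1; 0.5% H3PO4 wash, scintillant, LSC.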

Experiment [4] has as its target T4, EGFR (Homo sapiens, UniProt P00533).
T4 construct: Kinases are expressed as either kinase domains or full length constructs; made in house
Nature of the experiment: Kinase inhibition assay (33P transfer), EGFR. The conditions noted are these: Table 2, kinase inhibition class; read-out: EGFR-1. In short, it runs like this:
as §2

Experiment [5] concerns the target T5, ErbB2 (Homo sapiens, UniProt P04626).
T5 construct: Kinases are expressed as either kinase domains or full length constructs; made in house
Nature of the experiment: Kinase inhibition assay (33P transfer), ErbB2. As to conditions: read-out: ErbB2-2. In short, it runs like this:
as §2

Experiment [6] has as its target T6, Kdr (Homo sapiens, UniProt P35968).
T6 construct: Kinases are expressed as either kinase domains or full length constructs; made in house
Kind of experiment: Kinase inhibition assay (33P transfer), Kdr. As to conditions: read-out: KDR-1. In short, it runs like this:
as §1

The target of experiment [7] is T7, c-Met (Homo sapiens, UniProt P08581).
T7 construct: Kinases are expressed as either kinase domains or full length constructs; made in house
Kind of experiment: Kinase inhibition assay (33P transfer), c-Met. The conditions noted are these: Table 2, kinase inhibition class; read-out: Met-1. The method in brief:
as §2

In experiment [8] the target is T8, AKT (Homo sapiens, UniProt Q9Y243).
T8 construct: Kinases are expressed as either kinase domains or full length constructs; made in house
Kind of experiment: Kinase inhibition assay (33P transfer), AKT. The conditions noted are these: Table 2, kinase inhibition class; read-out: AKT3-1. In short, it runs like this: as §1

The target of experiment [9] is T9, IGFR-1 (Homo sapiens, UniProt P08069).
T9 construct: Kinases are expressed as either kinase domains or full length constructs; made in house
Nature of the experiment: Kinase inhibition assay, IGFR-1 (Table 2). As to conditions: Table 2, kinase inhibition class.

The target in experiment [10] is T10, PDGFRB (Homo sapiens, UniProt P09619).
T10 construct: Kinases are expressed as either kinase domains or full length constructs; made in house
Nature of the experiment: Kinase inhibition assay (33P transfer), PDGFRB. As to conditions: read-out: PDGFRB-1.

A value given as a limit tells only on which side of the number the result lay.

T4 sequence (P00533 25-1210, species assumed): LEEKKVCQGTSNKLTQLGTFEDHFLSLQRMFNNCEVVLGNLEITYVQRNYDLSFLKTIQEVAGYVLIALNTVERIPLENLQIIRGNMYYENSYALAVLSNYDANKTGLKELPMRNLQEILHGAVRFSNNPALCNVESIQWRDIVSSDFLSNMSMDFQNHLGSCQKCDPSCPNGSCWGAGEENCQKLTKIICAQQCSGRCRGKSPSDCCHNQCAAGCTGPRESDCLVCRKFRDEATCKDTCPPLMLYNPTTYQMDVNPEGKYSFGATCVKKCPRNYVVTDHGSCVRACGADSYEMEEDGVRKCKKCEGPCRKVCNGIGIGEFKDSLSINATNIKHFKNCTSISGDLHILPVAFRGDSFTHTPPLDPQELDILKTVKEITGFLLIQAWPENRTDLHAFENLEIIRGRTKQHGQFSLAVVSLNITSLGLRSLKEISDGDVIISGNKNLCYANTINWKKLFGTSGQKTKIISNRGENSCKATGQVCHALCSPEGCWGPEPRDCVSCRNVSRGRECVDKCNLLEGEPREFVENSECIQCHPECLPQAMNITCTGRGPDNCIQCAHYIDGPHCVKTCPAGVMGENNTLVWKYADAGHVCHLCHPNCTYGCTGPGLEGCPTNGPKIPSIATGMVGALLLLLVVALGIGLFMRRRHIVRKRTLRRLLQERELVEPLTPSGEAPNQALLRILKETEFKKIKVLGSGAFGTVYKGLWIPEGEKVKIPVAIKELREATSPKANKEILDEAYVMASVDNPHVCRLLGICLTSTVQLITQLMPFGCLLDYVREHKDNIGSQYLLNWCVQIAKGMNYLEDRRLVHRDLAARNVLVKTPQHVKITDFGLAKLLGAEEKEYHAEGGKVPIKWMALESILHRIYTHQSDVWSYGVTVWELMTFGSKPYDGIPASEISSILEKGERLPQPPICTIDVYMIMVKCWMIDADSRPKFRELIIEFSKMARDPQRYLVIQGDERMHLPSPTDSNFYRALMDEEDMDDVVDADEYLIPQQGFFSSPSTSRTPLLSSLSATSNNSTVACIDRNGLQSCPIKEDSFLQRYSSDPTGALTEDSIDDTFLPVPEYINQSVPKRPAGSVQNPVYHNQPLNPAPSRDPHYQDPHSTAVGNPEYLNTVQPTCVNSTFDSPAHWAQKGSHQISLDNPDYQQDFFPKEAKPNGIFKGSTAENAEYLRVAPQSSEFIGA
T8 sequence (Q9Y243 whole entry, the tested form may be a part): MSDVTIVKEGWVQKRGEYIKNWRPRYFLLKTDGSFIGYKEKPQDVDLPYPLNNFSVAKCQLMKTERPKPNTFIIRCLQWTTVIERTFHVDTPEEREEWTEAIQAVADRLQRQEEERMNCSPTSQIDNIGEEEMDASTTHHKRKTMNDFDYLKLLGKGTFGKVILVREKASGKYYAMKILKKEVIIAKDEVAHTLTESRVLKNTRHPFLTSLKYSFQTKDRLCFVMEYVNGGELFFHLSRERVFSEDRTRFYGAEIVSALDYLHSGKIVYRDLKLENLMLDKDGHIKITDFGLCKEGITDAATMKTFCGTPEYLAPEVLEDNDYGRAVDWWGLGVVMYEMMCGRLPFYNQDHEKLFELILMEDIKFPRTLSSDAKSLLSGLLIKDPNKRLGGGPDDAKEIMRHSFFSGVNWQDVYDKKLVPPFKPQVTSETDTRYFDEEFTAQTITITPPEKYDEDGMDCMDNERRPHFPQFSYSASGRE
T7 sequence (P08581 25-1390): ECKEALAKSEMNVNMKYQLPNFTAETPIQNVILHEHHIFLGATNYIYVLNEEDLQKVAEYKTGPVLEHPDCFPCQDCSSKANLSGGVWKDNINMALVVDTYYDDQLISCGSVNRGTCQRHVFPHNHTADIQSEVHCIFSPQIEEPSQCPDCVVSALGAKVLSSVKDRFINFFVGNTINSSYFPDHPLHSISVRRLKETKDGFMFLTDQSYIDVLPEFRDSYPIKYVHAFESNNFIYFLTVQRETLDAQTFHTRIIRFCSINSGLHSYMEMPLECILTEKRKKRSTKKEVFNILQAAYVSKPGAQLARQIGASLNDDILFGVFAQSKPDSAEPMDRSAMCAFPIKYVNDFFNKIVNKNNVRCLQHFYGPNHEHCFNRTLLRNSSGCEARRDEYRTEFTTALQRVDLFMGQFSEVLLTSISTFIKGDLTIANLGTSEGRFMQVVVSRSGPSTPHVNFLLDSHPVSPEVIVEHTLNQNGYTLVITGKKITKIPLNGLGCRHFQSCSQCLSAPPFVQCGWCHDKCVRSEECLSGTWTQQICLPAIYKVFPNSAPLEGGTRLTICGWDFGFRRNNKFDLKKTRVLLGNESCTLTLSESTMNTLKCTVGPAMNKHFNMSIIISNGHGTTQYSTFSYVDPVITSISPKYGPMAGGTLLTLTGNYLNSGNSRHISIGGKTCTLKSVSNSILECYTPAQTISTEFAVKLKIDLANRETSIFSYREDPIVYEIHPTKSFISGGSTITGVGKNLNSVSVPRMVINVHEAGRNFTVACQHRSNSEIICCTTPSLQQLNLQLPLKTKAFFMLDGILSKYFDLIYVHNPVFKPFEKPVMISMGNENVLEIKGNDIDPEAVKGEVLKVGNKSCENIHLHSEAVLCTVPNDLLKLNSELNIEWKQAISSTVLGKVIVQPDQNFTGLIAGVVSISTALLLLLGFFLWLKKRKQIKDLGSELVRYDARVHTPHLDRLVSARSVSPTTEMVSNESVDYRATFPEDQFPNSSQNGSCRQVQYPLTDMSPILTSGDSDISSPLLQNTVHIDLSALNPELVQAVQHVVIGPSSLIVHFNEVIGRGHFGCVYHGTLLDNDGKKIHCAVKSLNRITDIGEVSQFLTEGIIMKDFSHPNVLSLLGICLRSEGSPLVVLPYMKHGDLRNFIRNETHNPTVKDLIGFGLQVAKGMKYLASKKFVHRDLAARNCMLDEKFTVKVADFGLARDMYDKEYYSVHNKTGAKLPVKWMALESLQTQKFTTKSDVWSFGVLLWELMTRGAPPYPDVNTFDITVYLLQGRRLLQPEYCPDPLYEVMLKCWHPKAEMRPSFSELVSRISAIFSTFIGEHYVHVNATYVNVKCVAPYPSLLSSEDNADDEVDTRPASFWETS
T9 sequence (P08069 31-1367): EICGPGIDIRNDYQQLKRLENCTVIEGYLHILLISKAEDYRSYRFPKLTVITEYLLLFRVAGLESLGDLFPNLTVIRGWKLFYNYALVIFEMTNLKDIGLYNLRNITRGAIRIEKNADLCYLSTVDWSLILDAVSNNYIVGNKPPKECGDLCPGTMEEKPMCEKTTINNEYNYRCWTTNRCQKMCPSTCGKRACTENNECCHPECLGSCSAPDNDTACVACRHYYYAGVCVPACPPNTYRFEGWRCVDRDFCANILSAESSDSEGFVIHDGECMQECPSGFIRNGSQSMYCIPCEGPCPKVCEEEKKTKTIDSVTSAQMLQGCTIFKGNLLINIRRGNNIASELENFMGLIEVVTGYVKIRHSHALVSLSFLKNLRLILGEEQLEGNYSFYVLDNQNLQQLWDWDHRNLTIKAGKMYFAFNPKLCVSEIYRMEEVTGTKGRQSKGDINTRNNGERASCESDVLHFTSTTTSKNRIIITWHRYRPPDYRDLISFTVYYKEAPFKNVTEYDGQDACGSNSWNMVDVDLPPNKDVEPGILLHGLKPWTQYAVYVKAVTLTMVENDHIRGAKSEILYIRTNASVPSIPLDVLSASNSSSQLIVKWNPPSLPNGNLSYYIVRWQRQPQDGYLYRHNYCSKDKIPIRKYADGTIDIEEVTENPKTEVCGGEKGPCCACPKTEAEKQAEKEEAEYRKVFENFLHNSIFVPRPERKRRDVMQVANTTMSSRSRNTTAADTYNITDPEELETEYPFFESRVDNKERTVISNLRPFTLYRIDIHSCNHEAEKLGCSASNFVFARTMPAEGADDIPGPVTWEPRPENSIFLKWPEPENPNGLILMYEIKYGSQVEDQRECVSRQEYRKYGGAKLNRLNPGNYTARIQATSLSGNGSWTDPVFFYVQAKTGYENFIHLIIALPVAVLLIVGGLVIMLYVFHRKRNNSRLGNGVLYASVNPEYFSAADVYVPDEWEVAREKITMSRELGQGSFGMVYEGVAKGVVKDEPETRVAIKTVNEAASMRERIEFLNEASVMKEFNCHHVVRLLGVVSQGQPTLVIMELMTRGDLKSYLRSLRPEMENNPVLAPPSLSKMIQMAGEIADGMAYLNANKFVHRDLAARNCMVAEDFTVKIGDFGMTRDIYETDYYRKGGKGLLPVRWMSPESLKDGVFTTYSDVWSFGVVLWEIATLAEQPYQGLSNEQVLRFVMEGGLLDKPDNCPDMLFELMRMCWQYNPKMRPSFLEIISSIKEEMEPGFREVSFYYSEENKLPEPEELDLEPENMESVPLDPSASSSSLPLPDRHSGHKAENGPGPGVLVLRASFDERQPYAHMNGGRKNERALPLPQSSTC
T1 sequence (P06239 whole entry, species assumed, the tested form may be a part): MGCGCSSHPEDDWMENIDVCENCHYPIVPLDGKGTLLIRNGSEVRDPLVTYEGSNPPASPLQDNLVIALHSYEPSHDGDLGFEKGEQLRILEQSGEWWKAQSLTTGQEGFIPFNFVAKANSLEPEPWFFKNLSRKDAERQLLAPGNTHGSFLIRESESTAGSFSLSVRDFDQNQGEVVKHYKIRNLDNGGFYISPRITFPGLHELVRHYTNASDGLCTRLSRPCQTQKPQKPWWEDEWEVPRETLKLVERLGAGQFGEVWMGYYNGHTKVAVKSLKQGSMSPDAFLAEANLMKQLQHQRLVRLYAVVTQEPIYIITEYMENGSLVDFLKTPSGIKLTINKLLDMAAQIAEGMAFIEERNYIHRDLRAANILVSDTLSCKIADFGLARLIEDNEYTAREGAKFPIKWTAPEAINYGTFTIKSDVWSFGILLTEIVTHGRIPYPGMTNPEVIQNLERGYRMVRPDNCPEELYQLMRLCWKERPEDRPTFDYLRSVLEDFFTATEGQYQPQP

Regarding `NC(=O)Cc1cccc(Nc2ncnc(Nc3cc(-c4ccccc4)n[nH]3)n2)c1` [Compound 578], the IC50 in [1] is below 1.04 µM; in [2], above 11.6 µM; in experiment [3], below 1.04 µM; in experiment [4], below 1.04 µM; in experiment [5] it was 1.04 to 6.21 µM; in experiment [6], below 1.04 µM. Besides, the IC50 in experiment [7] was below 1.04 µM; in experiment [8], above 11.6 µM; in experiment [9] it was below 1.04 µM; in experiment [10], 1.04 to 6.21 µM.
As for `CC(=O)N1CCc2cc(Nc3ncnc(N4CCCc5cc(C)ccc54)n3)ccc21` [Compound 764], the IC50 in experiment [1] was above 11.2 µM; in experiment [2], above 11.2 µM; in experiment [3], above 11.2 µM; in [4] it was below 0.999 µM; in experiment [5], above 11.2 µM; in [6], above 11.2 µM. Moreover, the IC50 is below 0.999 µM in experiment [7], above 11.2 µM in experiment [8], above 11.2 µM in [9] and below 0.999 µM in experiment [10].
With `COc1cc(Nc2ncnc(Nc3cccc(CC(=O)O)c3)n2)cc(OC)c1OC` [Compound 624], the IC50 in experiment [1] is 0.972 to 5.83 µM; in [2] it was above 10.9 µM; in experiment [3] it was above 10.9 µM; in experiment [4], below 0.972 µM; in experiment [5], below 0.972 µM; in experiment [6], 5.83 to 8.51 µM. In addition, the IC50 in [7] was above 10.9 µM; in experiment [8], above 10.9 µM; in experiment [9] it was above 10.9 µM; in experiment [10] it was 0.972 to 5.83 µM.
For the compound `COC(=O)c1ccc(-c2cc(Nc3ncnc(Nc4cccc(CC(N)=O)c4)n3)[nH]n2)cc1` [Compound 577], the IC50 was 0.9 to 5.4 µM in experiment [1]; above 10.1 µM in [2]; 0.9 to 5.4 µM in experiment [3]; 7.87 to 10.1 µM in experiment [4]; 7.87 to 10.1 µM in experiment [5]; 0.9 to 5.4 µM in experiment [6]. In addition, the IC50 in experiment [7] was below 0.9 µM; in [8] it was above 10.1 µM; in experiment [9] it was below 0.9 µM; in experiment [10], 0.9 to 5.4 µM.
`COc1cc(Nc2ncnc(-n3c(Nc4ccc(OC(F)(F)F)cc4)nc4ccccc43)n2)cc(OC)c1OC` [Compound 1050]: the IC50 in experiment [1] is above 8.13 µM; in [2] it was above 8.13 µM; in [3], above 8.13 µM; in [4], 4.34 to 6.32 µM; in experiment [5] it was 4.34 to 6.32 µM; in experiment [6], 0.723 to 4.34 µM. Moreover, the IC50 in experiment [7] was 4.34 to 6.32 µM; in experiment [8], above 8.13 µM; in experiment [9], above 8.13 µM; in experiment [10] it was 0.723 to 4.34 µM.
On to `Brc1cccc(Nc2ncnc(Nc3ccc4c(cnn4Cc4ccccc4)c3)n2)c1` [Compound 554], for which the IC50 in experiment [1] is 5.08 to 7.41 µM; in [2], 7.41 to 9.53 µM; in [3], above 9.53 µM; in experiment [4], below 0.847 µM; in experiment [5], 5.08 to 7.41 µM; in experiment [6], 0.847 to 5.08 µM. The IC50 in experiment [7] is 5.08 to 7.41 µM; in experiment [8], 7.41 to 9.53 µM; in experiment [9] it was above 9.53 µM; in [10], 7.41 to 9.53 µM.
Turning to `CN(c1cccc(Cl)c1)c1ncnc(Nc2cccc(Br)c2)n1` [Compound 707], the IC50 in experiment [1] is above 11.5 µM; in experiment [2], above 11.5 µM; in experiment [3], above 11.5 µM; in experiment [4], below 1.02 µM; in experiment [5], above 11.5 µM; in experiment [6], above 11.5 µM. Also, the IC50 in experiment [7], in experiment [8], in experiment [9] and in experiment [10] was above 11.5 µM in each case.
For the compound `CCCN(CC1CC1)c1ncnc(Nc2cc(OC)c(OC)c(OC)c2)n1` [Compound 626], the IC50 in experiment [1] is 1.07 to 6.43 µM; in experiment [2], above 12 µM; in [3] it was 9.37 to 12 µM; in experiment [4] it was 9.37 to 12 µM; in experiment [5] it was above 12 µM; in experiment [6], 1.07 to 6.43 µM. The IC50 in experiment [7] was 1.07 to 6.43 µM; in [8], above 12 µM; in [9] it was above 12 µM; in [10], 1.07 to 6.43 µM.
Consider `CN1CCN(Cc2cccc(Nc3ncnc(Nc4ccc5c(cnn5Cc5ccccc5)c4)n3)c2)CC1` [Compound 552], for which the IC50 in experiment [1], in experiment [2], in experiment [3], in experiment [4], in [5] and in experiment [6] was above 8.9 µM throughout. Also, the IC50 in [7], in experiment [8], in [9] and in experiment [10] was above 8.9 µM throughout.
In the case of `O=C(O)Cc1cccc(Nc2ncnc(-n3c(NCc4ccccn4)nc4ccccc43)n2)c1` [Compound 533], the IC50 in [1] is above 9.95 µM; in [2], above 9.95 µM; in experiment [3] it was above 9.95 µM; in experiment [4], above 9.95 µM; in experiment [5], above 9.95 µM; in experiment [6], below 0.884 µM. In addition, the IC50 is above 9.95 µM in experiment [7], above 9.95 µM in experiment [8], above 9.95 µM in [9] and 0.884 to 5.3 µM in [10].
`CN(c1cccc(Cl)c1)c1ncnc(N[C@@H]2CCN(Cc3ccccc3)C2)n1` [Compound 755]: the IC50 in experiment [1], in experiment [2], in experiment [3], in experiment [4], in [5] and in experiment [6] was above 11.4 µM throughout. Also, the IC50 in [7], in experiment [8], in experiment [9] and in experiment [10] was above 11.4 µM throughout.
Turning to `NC(=O)Cc1cccc(Nc2ncnc(-n3c(N)nc4ccccc43)n2)c1` [Compound 955], the IC50 in [1] was 1.11 to 6.66 µM; in experiment [2], above 12.5 µM; in experiment [3] it was 1.11 to 6.66 µM; in [4] it was above 12.5 µM; in experiment [5], 1.11 to 6.66 µM; in experiment [6], below 1.11 µM. Moreover, the IC50 in experiment [7] is 1.11 to 6.66 µM; in experiment [8], above 12.5 µM; in experiment [9] it was below 1.11 µM; in experiment [10], 1.11 to 6.66 µM.
With `CN(c1cccc(Cl)c1)c1ncnc(Nc2ccc(CC(=O)O)cc2)n1` [Compound 705], the IC50 in [1] is above 12.2 µM; in experiment [2], above 12.2 µM; in experiment [3] it was above 12.2 µM; in [4], below 1.08 µM; in [5] it was 1.08 to 6.49 µM; in experiment [6] it was 9.46 to 12.2 µM. Also, the IC50 in experiment [7], in experiment [8], in [9] and in [10] was above 12.2 µM throughout.
Regarding `O=C(O)Cc1cccc(Nc2ncnc(Nc3cccc(Br)c3)n2)c1` [Compound 541], the IC50 is above 11.2 µM in experiment [1]; above 11.2 µM in [2]; 8.74 to 11.2 µM in experiment [3]; below 0.999 µM in experiment [4]; below 0.999 µM in [5]; 0.999 to 6 µM in experiment [6]. For the same compound, the IC50 is 8.74 to 11.2 µM in experiment [7], above 11.2 µM in experiment [8], 0.999 to 6 µM in experiment [9] and 0.999 to 6 µM in [10].

The values are drawn from patent US7074789B2, “Kinase inhibitors” (Amgen Inc., priority 1999, dated 2006).
